Measurements taken from the supplement of paper PMC5412046.
Where a name gives a salt, the structure may show the parent alone.

Assays:
[1] = test system: SB.msgc-1; assay: area under the dose-response curve of % viability (trapezoidal, 11 doses) (% viability x log10 concentration); higher = less cytotoxic; settings: SB.msgc-1 (sporadic gastric cancer)
Summary of the method: (§1)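 The measure is viability normalised to DMSO, given as trapezoidal area under the curve or at the highest concentration. Patient-derived gastric cancer cells, hereditary or sporadic, were exposed for 48 h to compound at 11 threefold-diluted concentrations, each compound's top concentration being recorded. Luminescence was read on a ViewLux after 30 min with CellTiter-Glo at room temperature.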

[2] = test system: SB.mhdgc-1; assay: as above; settings: SB.mhdgc-1 (hereditary c.1380delA CDH1 gastric cancer)
Summary of the method: as §1

[3] = test system: SB.msgc-1; assay: viability at highest tested concentration (MAXR) relative to DMSO; higher = less cytotoxic; settings: SB.msgc-1 (sporadic gastric cancer)
Summary of the method: as §1

[4] = test system: SB.mhdgc-1; assay: as above; settings: SB.mhdgc-1 (hereditary c.1380delA CDH1 gastric cancer)
Summary of the method: as §1

SMILES | area under the dose-response curve [1] | area under the dose-response curve [2] | viability [3] | viability [4]
CCN[C@H]1C[C@H](C)[S+](=O)([O-])c2sc([S+](N)(=O)[O-])cc21 [Dorzolamide hydrochloride] (top concentration 46.0829 µM) | 539 | 526 | 98.2% | 138%
Cc1[nH]c2ccccc2c1CCNCc1ccc(/C=C/C(=O)NO)cc1 [Panobinostat] (top concentration 46.0829 µM) | 256 | 339 | 7.03% | 22.6%
CCC(=O)O[C@@]1([C@@H](C)C[C@H]2[C@@H]3CCC/4=C/C(=O)/C=C\[C@]4(C)[C@@]3(F)[C@@H](O)C[C@]12C)C(=O)CCl [Clobetasol propionate] (top concentration 46.0829 µM) | 548 | 506 | 87.9% | 77.7%
Cl.Nc1ccn([C@@H]2O[C@H](CO)[C@@H](O)C2(F)F)c(=O)n1 [Gemcitabine] (top concentration 46.0829 µM) | 404 | 341 | 52.5% | 32.8%
COc1ccc2cc1Oc1ccc(cc1)C[C@H]1c3cc(c(OC)cc3CCN1C)Oc1c(OC)c(OC)cc3c1[C@H](C2)N(C)CC3 [Tetrandrine] (top concentration 46.0829 µM) | 507 | 538 | 48.5% | 57.7%
O=C(C1CC1)N1CC[C@@H](Cn2c(-c3ccc(-c4ccc5occc5c4)cc3)nc3cnccc32)C1 (top concentration 46.0829 µM) | 508 | 536 | 54.8% | 63.9%
C=CC(=O)Nc1cccc(Oc2nc(Nc3ccc(N4CCN(C)CC4)cc3)ncc2Cl)c1 [WZ-3146] (top concentration 46.0829 µM) | 276 | 391 | 1.38% | 3.3%
CC(=O)NCCC(=O)N[C@@H](CCC(N)=O)C(=O)N[C@@H](CO)C(=O)N[C@@H](CCC(N)=O)C(=O)N[C@@H](CCC(N)=O)C(=O)N[C@H](C(=O)N[C@@H](Cc1ccccc1)C(=O)N[C@]1(C)CCCCCC/C=C\CCC[C@@](C)(C(=O)N[C@@H](CCC(N)=O)C(=O)N[C@@H](CC(N)=O)C(N)=O)NC(=O)[C@H](CC(C)C)NC(=O)[C@H](CC(C)C)NC(=O)[C@@H](CCCNC(=N)N)NC(=O)[C@H](Cc2c[nH]c3ccccc23)NC(=O)[C@H](CC(C)C)NC(=O)[C@H](CC(N)=O)NC1=O)[C@H](C)O [Ac-SAH-p53-8] (top concentration 46.0829 µM) | 518 | 499 | 25.8% | 52.2%
Cc1ccccc1C(C(=O)NC1CCCC1)N(C(=O)Cn1cnc2ccccc21)c1cccc(F)c1 (configuration not stated) (top concentration 46.0829 µM) | 516 | 556 | 65.8% | 78.9%
C[C@H]1COC/2=C1/C(=O)C(=O)C3=C4CCCC(C)(C)C4=CC=C23 [Cryptotanshinone] (top concentration 46.0829 µM) | 484 | 429 | 33.4% | 3.87%
COC1=CC=CC(=C1/C2=N/CC3=C(N=C(NC4=CC(=C(C=C4)C(O)=O)OC)N=C3)C5=CC=C(Cl)C=C25)F [Alisertib] (top concentration 46.0829 µM) | 461 | 382 | 64.5% | 74.4%
CCCCC(=O)O[C@]1(C(=O)CO)[C@H](C)C[C@H]2[C@@H]3CCC4=CC(=O)C=C[C@]4(C)[C@@]3(F)[C@@H](O)C[C@@]21C [Betamethasone valerate] (top concentration 46.0829 µM) | 543 | 478 | 102% | 110%
CC[C@H](NC(C)C)[C@H](O)c1ccc(O)c2[nH]c(=O)ccc12 [Procaterol hydrochloride] (top concentration 46.0829 µM) | 530 | 517 | 99.5% | 104%
CC(C)C[C@H](NC(=O)CNC(=O)c1cc(Cl)ccc1Cl)B(O)O [Ixazomib] (top concentration 46.0829 µM) | 234 | 306 | 1.83% | 2.83%
COc1c(C)c2c(c(O)c1C/C=C(\C)CCC(=O)O)C(=O)OC2 [Mycophenolic acid] (top concentration 46.0829 µM) | 519 | 502 | 73.8% | 66%
O=C(c1cncc(Br)c1)N1CCC(N2CCCC2)CC1 [UNC669] (top concentration 46.0829 µM) | 516 | 563 | 106% | 121%
O=C(NC[C@H](O)CO)c1ccncc1Nc1ccc(I)cc1F [Pimasertib] (top concentration 46.0829 µM) | 459 | 396 | 67.1% | 34.6%

SMILES | area under the dose-response curve [1] | area under the dose-response curve [2] | viability [3] | viability [4]
Cc1ccc(C(C)(O)c2nc3ccccc3s2)c(C)c1 (configuration not stated) (top concentration 46.0829 µM) | 524 | 527 | 104% | 55.3%
CCN(CC)C(=S)SSC(=S)N(CC)CC [Disulfiram] (top concentration 46.0829 µM) | 360 | 141 | 32.4% | 3.68%
CCC(=O)NCC[C@@H]1CCc2ccc3c(c21)CCO3 [Ramelteon] (top concentration 46.0829 µM) | 563 | 510 | 59.9% | 48%
C[C@]12CC[C@@H]3c4ccc(O)cc4C[C@@H](CCCCCCCCC[S+]([O-])CCCC(F)(F)C(F)(F)F)[C@H]3[C@@H]1CC[C@@H]2O (some centres not stated) [Fulvestrant] (top concentration 46.0829 µM) | 515 | 531 | 87.6% | 90.9%
CN1\C(=C(\O)C2=C(C=CS2)[S+]1([O-])=O)C(=O)NC3=CC=CC=N3 [Tenoxicam] (top concentration 46.0829 µM) | 530 | 584 | 98% | 111%
CC(C)(C)OC(=O)N[C@H]1CCCCC/C=C\[C@@H]2C[C@@]2(C(=O)N[S+](=O)([O-])C2CC2)NC(=O)[C@@H]2C[C@@H](OC(=O)N3Cc4cccc(F)c4C3)CN2C1=O [Danoprevir] (top concentration 46.0829 µM) | 557 | 492 | 101% | 104%
COC(=O)[C@@H](N)CCCNC(=N)N[N+](=O)[O-] [L-NAME] (top concentration 46.0829 µM) | 509 | 460 | 48.5% | 21.9%
O=C(c1ccc(/C=C/c2n[nH]c3ccccc23)cc1)N1CCNCC1 [KW-2449] (top concentration 46.0829 µM) | 517 | 497 | 77.9% | 23%
CN(C)CCc1c[nH]c2ccc(Cn3cncn3)cc12 [Rizatriptan benzoate] (top concentration 46.0829 µM) | 392 | 589 | 71.7% | 107%
CC(C)[C@@H](N(CCCN)C(=O)C1=CC=C(C)C=C1)C/2=N/C3=CC(=CC=C3C(=O)N2CC4=CC=CC=C4)Cl [Ispinesib] (top concentration 46.0829 µM) | 204 | 297 | 14.9% | 3.03%
CN(C)CCN(Cc1ccc(Cl)cc1)c1ccccn1.Cl [Halopyramine] (top concentration 46.0829 µM) | 266 | 452 | 10.4% | 51.1%
C#CCN(C)[C@H](C)Cc1ccccc1 [Selegiline hydrochloride] (top concentration 46.0829 µM) | 520 | 493 | 110% | 81.3%
COc1cc2nccc(Oc3ccc(NC(=O)Nc4ccc(F)cc4F)c(F)c3)c2cc1OC [KI-8751] (top concentration 46.0829 µM) | 484 | 490 | 57.2% | 26.1%
O=C(NCC1CCOCC1)c1cnc(Nc2ccc(Cl)cc2Cl)nc1C(F)(F)F (top concentration 46.0829 µM) | 539 | 519 | 6.36% | 7.1%
C/C=C1\C2C=C(C)CC1(N)c1ccc(=O)[nH]c1C2 (configuration not stated) [Huperizine A] (top concentration 46.0829 µM) | 571 | 584 | 117% | 120%
CNC(=O)Nc1ccc(-c2nc(N3CC4CCC(C3)O4)c3cnn(C4CCC5(CC4)OCCO5)c3n2)cc1 (top concentration 46.0829 µM) | 388 | 268 | 40.1% | 3.97%
